In patent publication US20020072602A1, “Micronized mirtazapine” (priority 2000, published 2002):
Entries after “also recorded” stand apart in the source; their conditions may differ.

Key:
[1] = cited from earlier work
[2] = dissolution of mirtazapine before and after micronization; assay type: physicochemical; details: compared to mirtazapine prior to micronization
From the text: FIG. 1 is a graph of the dissolution data of mirtazapine before and after micronization. FIG. 2 is a graph of the percent of dissolved mirtazapine before and after micronization. FIG. 3 is a graph of showing the dissolution time and standard deviations of the dissolution results before and after micronization. […] This is valuable improvement provides for more accurate dosing of mirtazapine.

| SMILES | solubility in water [1] | dissolution profile [2] |
| --- | --- | --- |
| CN1CCN2c3ncccc3Cc3ccccc3C2C1 (centres unmarked) [Mirtazapine, 1,2,3,4,10,14b-hexahydro-2-methyl-pyrazino [2,1-a]pyrido[2,3-c][2] benzazepine] | essentially insoluble in water |  |
| CN1CCN2c3ncccc3Cc3ccccc3C2C1 (centres unmarked) [micronized mirtazapine] |  | superior dissolution profile; also recorded: more stable and reproducible dissolution profile |
